Results from patent US20080234232A1, “Methods and compositions for targeting AFAP” (priority 2007, published 2008).

Key:
cSrc [1] = experiment: Western blot of phospho-Src family (Y416) after PMA treatment; format: cell-based, mouse; conditions: 100 nM PMA 15 min
Experimental: E) SYF, SYF/cSrc, and p85−/− were treated with 100 nM PMA for 15 minutes, 40 μg cell lysate resolved by SDS-PAGE and western blot analysis performed to evaluate phospho-Src family (Y416)(1:1000) and cSrc (1:500) as described in the methods section. Beta-actin (1:5000) was used as a loading control.
All cells were cultured to 70-80% confluence, serum-starved for 16 hours, and treated as described above. The cells were lysed and western analysis performed as previously described (Guappone, A. C. et. al., 1997). Membranes were probed using the following antibodies diluted in 1× Tris-buffered saline plus 0.1% Tween-20 (TBS-T) containing 5% nonfat milk, except were indicated: 1:10000 AFAP-110 pAb (F1), 1:1000 Phospho-Src family Tyrosine 416 (Cell Signal) in 5% BSA, 1:500 cSrc (clone N-16: Santa Cruz Biotechnology), 1:1000 p85α (BD Biosciences), 1:1000 p110α (BD Biosciences), 1:1000 PKCα (BD Biosciences), and 1:5000 β-actin in 1% BSA (Sigma).

cSrc [2] = experiment: Immunofluorescence: translocation of cSrc from the perinuclear region to the cell periphery; format: cell-based, mouse; conditions: 100 nM PMA
Experimental: FIG. 2: Inhibition of PI3K blocks translocation of cSrc from the perinuclear region of mouse embryo fibroblast in response to PMA treatment. SYF and p85−/− null cells were transiently transfected with cSrc and labeled for avian cSrc using EC10, an avian-specific monoclonal antibody (1:500). EC10 was visualized with anti-mouse Atexa Fluor 488 (false colored red for consistency). Cells treated with 100 nM PMA (panel b) induced translocation of cSrc to the cell periphery as indicated by the arrows. However, cells treated with 100 nM PMA in conjunction with 6 μM bisindolylmaleimide (panel c) or 10 μM LY (panel d) blocked the translocation of cSrc as indicated by the arrows. […] (n=nucleus) Bars represent 20 μM.
SYF, SYF/cSrc, p85α+/+ and p85−/− cells were cultured in standard culture media. Transient transfections of SYF, SYF/cSrc, p85α+/+ cells for immunofluorescence were carried out using LipofectAMINE™ Reagent (Invitrogen) as per manufacturer's protocol. Briefly, Approximately 5.0-8.0×10^4 cells per well were transfected at 50-70% confluent on coverstips with 2-4 μg of plasmid DNA and incubated for 3-4 hours. Thirty-six hours after transfection, cells were serum starved for 12 hours, treated, and subsequently fixed and permeablized as previously described (Qian, Y. et. al., 1998). Cells were treated with a PKC activator, 100 nM PMA for 5 or 15 minutes or in combination with the following pretreatments; a PKC inhibitor, 6 μM bisindolylmaleimide [I] for six hours; or PI3K inhibitor, 10 μM LY294002 for six hours; 50 nM Wortmannin for 30 minutes; and/or a Src family inhibitor, 5 μM PP1 for six hours. For actin labeling, a 1:500 dilution of TRITC-phalloidin was used as labeled in the figures. Primary antibody concentrations used were diluted in 5% Bovine Serum Albumin (BSA) dissolved in 1× phosphate-buffered saline (PBS): EC10 mAb-1:500; Phospho-Src Family (Y416) pAb-1:250; Anti-PI-3,4,5-P3 mAb-1:100; Anti-AFAP-110 (F1)pAb-1:1000; Anti-cSrc pAb-1:500; Anti-flag-1:1000. […]

PI3K [3] = target: T1, PI3K (Mus musculus, UniProt P42337); experiment: In vitro PI3K kinase assay on anti-p110α immunoprecipitates of treated SYF/cSrc cells; format: cell-based; conditions: SYF/cSrc cells serum-starved, 100 nM PMA for 5 or 15 minutes
T1 construct: a PI3K kinase activity assay performed using anti-p1100α immunoprecipitates; endogenous in cells; host or cells: SYF/cSrc mouse embryo fibroblasts (lysate, anti-p110α immunoprecipitate)
Experimental: FIG. 3: PMA treatment results in an increase in PI3K activation, in vitro. SYF/cSrc cells were cultured under serum-free conditions for 24 hours. Cells were unstimulated or stimulated with 10% serum (positive control), 100 nM PMA for 5 or 15 minutes. Cells were then lysed in kinase assay buffer and a PI3K kinase activity assay performed using anti-p1100α immunoprecipitates to measure PMA-induced incorporation of [^32p] into phosphoinositide substrates.
PI3K activity was determined using the In vitro PI3K kinase assay as previously described (Jiang, B. H. et. al., 1998). Cells were serum-starved 24 hours. The media was changed and cells were then treated with either 10% fetal calf serum or 100 nM PMA for 5 or 15 minutes alone or in conjunction with 6 μM bisindolylmaleimide [i] or 10 μM LY294002 for six hours as a negative control. Upon completion of the incubation, the cells were lysed in cold kinase lysis buffer [150 mM NaCl, 100 mM Tris pH 8.0, 1% Triton X-100, 5 mM EDTA, 10 mM NaF, plus inhibitors (1 mg/ml leuptin, 1 mg/ml peptatin, 0.5 M sodium vanadate, 1 mg/ml aprotinin, and 1M DTT)]. Five hundred micrograms (500 μg) of protein was incubated with p110α antibody overnight at 4° C. Forty microliters (40 μl) of protein A/G PLUS agarose beads (50% slurry) was added and incubated for an additional two hours. […]

PI3K [4] = experiment: Surrogate markers for PI3K activation in the MEF cell system; format: cell-based, mouse; conditions: PMA treatment

T1 sequence (P42337 whole entry): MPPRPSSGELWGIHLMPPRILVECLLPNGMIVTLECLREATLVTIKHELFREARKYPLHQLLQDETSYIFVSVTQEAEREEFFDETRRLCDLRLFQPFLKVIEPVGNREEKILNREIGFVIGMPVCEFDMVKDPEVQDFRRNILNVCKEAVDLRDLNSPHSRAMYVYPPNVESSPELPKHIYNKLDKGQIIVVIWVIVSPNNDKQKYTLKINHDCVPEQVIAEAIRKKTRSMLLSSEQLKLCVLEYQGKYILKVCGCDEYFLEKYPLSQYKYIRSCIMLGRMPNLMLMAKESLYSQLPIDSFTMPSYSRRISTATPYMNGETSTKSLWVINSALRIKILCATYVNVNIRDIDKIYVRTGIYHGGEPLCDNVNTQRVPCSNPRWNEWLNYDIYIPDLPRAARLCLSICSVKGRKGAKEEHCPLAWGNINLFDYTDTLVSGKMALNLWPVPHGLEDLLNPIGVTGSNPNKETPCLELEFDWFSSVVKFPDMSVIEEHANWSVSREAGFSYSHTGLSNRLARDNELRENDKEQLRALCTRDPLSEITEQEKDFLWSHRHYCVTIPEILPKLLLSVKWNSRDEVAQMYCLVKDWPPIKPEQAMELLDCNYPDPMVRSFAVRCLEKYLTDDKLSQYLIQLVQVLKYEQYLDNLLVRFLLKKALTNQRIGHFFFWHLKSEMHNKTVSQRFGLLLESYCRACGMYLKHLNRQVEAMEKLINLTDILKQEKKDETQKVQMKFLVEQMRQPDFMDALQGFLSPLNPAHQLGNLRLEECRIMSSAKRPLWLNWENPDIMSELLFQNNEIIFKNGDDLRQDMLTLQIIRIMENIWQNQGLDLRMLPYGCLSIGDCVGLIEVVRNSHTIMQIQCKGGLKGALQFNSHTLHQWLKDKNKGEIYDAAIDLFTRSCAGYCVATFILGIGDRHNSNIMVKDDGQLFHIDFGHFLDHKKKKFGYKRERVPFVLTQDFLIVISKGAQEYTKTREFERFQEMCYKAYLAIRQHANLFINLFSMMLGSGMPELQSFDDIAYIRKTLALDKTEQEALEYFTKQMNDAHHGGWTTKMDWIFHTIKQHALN
T1 sequence (P26450 whole entry partner): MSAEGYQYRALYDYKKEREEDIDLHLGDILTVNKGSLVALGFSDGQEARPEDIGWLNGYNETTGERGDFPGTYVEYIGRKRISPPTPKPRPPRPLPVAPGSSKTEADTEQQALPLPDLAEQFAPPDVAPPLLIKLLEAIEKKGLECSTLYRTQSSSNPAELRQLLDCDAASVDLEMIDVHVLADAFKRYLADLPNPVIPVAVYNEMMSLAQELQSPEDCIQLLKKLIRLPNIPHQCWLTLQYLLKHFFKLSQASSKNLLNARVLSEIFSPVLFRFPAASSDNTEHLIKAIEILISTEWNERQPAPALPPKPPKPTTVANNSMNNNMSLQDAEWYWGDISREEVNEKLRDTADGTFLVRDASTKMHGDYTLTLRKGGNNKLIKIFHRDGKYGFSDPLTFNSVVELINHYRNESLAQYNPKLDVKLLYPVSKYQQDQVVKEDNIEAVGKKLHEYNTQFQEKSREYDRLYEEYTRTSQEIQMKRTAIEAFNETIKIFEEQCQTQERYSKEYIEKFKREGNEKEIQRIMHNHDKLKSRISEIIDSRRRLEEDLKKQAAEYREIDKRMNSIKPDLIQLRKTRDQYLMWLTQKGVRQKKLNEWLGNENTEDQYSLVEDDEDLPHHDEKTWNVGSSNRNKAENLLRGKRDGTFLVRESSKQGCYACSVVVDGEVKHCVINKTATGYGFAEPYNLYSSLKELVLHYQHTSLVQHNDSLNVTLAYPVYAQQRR

CCCCCCCCCCCCCC(=O)O[C@@H]1[C@@H](C)[C@@]2(O)[C@@H](C=C(CO)C[C@]3(O)C(=O)C(C)=C[C@@H]23)[C@@H]2C(C)(C)[C@]12OC(C)=O [PMA, Phorbol 12-myristate 13-acetate]
tyrosine416 phosphorylation of cSrc (cSrc [1]; SYF/cSrc cells): induced
cSrc activation (western blot) (cSrc [1]; mouse embryo fibroblasts lacking the p85 regulatory subunit): failed to induce
translocation of cSrc on PMA treatment (cSrc [2]; SYF cells transfected with cSrc): induced cSrc to translocate from the perinuclear region to the cell periphery
translocation of cSrc on PMA treatment (cSrc [2]; p85−/− cells): cSrc remained in the perinuclear region
PI3K activity (incorporation of 32P into phosphoinositide substrate) (PI3K [3]): significant increase
Akt phosphorylation on serine 473 (PI3K [4]): could induce an increase
stabilization of HIF-1α (PI3K [4]): could induce
